Experimental data from the NIST ThermoML archive (doi:10.1021/je060271a).

Settings: 343.15 K, Liquid, Vibrating tube method

CCCCCC(=O)OCC(COC(=O)CCCCC)(COC(=O)CCCCC)COC(=O)CCCCC [pentaerythritol tetrahexanoate]
Settings	mass density [kg/m3]
5696.7 kPa	961.3
5737.4 kPa	961.4
5771.4 kPa	961.4
5805.5 kPa	961.6
5839.7 kPa	961.6
5880 kPa	961.6
5913.7 kPa	961.6
5948.1 kPa	961.5
5988.1 kPa	961.6
6021.6 kPa	961.7
6055.8 kPa	961.8
6095.9 kPa	961.7
6130 kPa	961.7
6163.7 kPa	961.6
6303.4 kPa	962.1
6343 kPa	961.7
6375.6 kPa	961.9
6408.1 kPa	961.9
6440.4 kPa	961.9
6478.6 kPa	962.1
6509.9 kPa	962
6541 kPa	962.1
6572.6 kPa	962.1
6608.9 kPa	962.2
6752.3 kPa	962.2
6777.5 kPa	962.2
6802.4 kPa	962.2
6831.3 kPa	962.4
6854.2 kPa	962.2
6882.2 kPa	962.3
6906 kPa	962.3
6930.2 kPa	962.3
6953.5 kPa	962.4
6977.2 kPa	962.4
7001.2 kPa	962.4
7029.7 kPa	962.4
7054.1 kPa	962.6
7078.2 kPa	962.6
7102.1 kPa	962.5
7130.7 kPa	962.4
7154.9 kPa	962.5
7179.4 kPa	962.5
7208.3 kPa	962.6
7233.7 kPa	962.6
7260 kPa	962.6
7284.4 kPa	962.6
7309.2 kPa	962.7
7338.6 kPa	962.7
7363.8 kPa	962.7
7388.9 kPa	962.6
7418.5 kPa	962.7
7443.8 kPa	962.8
7469 kPa	962.8
7499.3 kPa	962.8
7524.9 kPa	962.8
7767.9 kPa	962.9
7799 kPa	963
7825.1 kPa	963.1
7851.3 kPa	962.9
7877.7 kPa	963.1
7909.5 kPa	963.1
7936.7 kPa	963
7963.5 kPa	963.3
7989.9 kPa	963.2
8021.4 kPa	963.1
8047.9 kPa	963.1
8074.4 kPa	963.2
8105.7 kPa	963.3
8131.9 kPa	963.3
8158.1 kPa	963.4
8189.5 kPa	963.3
8215.6 kPa	963.3
8242.5 kPa	963.3
8269.2 kPa	963.4
8301.8 kPa	963.4
8328.6 kPa	963.3
8355.6 kPa	963.5
8382.4 kPa	963.3
8415.2 kPa	963.5
8442.4 kPa	963.4
8469.3 kPa	963.5
8502.3 kPa	963.5
8646.3 kPa	963.7
8736.5 kPa	963.7
8764.6 kPa	963.7
8798.5 kPa	963.7
8827.2 kPa	963.9
8855.8 kPa	963.7
8890.1 kPa	963.9
8919.1 kPa	963.8
8953.7 kPa	964
8982.7 kPa	963.9
9012.2 kPa	963.9
9047.3 kPa	964
9077.3 kPa	963.9
9107.5 kPa	964
9137.5 kPa	964
9173.3 kPa	964
9362.4 kPa	964.1
9399.5 kPa	964.2
9430.7 kPa	964.2
9462.9 kPa	964.2
9496.5 kPa	964.2
9527.5 kPa	964.2
9565.2 kPa	964.4
9800.6 kPa	964.4
11008 kPa	965.5
11050 kPa	965.3
11087 kPa	965.3
11123 kPa	965.3
11159 kPa	965.4
11202 kPa	965.4
11238 kPa	965.5
11274 kPa	965.6
11701 kPa	965.7
11736 kPa	965.9
11778 kPa	965.9
11813 kPa	965.9
11848 kPa	966
11889 kPa	965.9
11924 kPa	965.9
11958 kPa	966
11998 kPa	966.1
12031 kPa	966.2
12159 kPa	966.1
12190 kPa	966.2
12236 kPa	966.3
12264 kPa	966.2
12287 kPa	966.4
12310 kPa	966.3
12337 kPa	966.4
12361 kPa	966.4
12383 kPa	966.3
12808 kPa	966.7
12827 kPa	966.7
12842 kPa	966.7
12857 kPa	966.7
12873 kPa	966.7
12892 kPa	966.7
12909 kPa	966.7
12927 kPa	966.8
12989 kPa	966.8
13011 kPa	966.7
13039 kPa	966.9
13064 kPa	967
13093 kPa	966.8
13131 kPa	966.9
13169 kPa	966.9
13207 kPa	966.9
13245 kPa	966.9
13290 kPa	967
13328 kPa	967.2
13373 kPa	967
13409 kPa	967.1
13559 kPa	967.3
13566 kPa	967.3
13908 kPa	967.5
13933 kPa	967.3
13985 kPa	967.4
14253 kPa	967.7
14284 kPa	967.7
14335 kPa	967.9
14361 kPa	967.8
14387 kPa	967.8
14418 kPa	967.8
14469 kPa	967.9
14756 kPa	968.1
14783 kPa	968.1
14816 kPa	968.1
14843 kPa	968.2
15289 kPa	968.4
15317 kPa	968.4
15350 kPa	968.4
15379 kPa	968.4
15408 kPa	968.4
15436 kPa	968.6
15470 kPa	968.5
15498 kPa	968.6
15525 kPa	968.6
15558 kPa	968.6
15584 kPa	968.6
15615 kPa	968.6
16026 kPa	968.9
16081 kPa	968.9
16112 kPa	968.9
16138 kPa	969
16163 kPa	969
16189 kPa	969.1
16220 kPa	969
16246 kPa	969.1
16272 kPa	969
16303 kPa	969
16328 kPa	969.2
16525 kPa	969.2
16552 kPa	969.4
16584 kPa	969.3
16611 kPa	969.4
16638 kPa	969.2
16666 kPa	969.3
16699 kPa	969.4
16726 kPa	969.4
16754 kPa	969.4
16782 kPa	969.5
16815 kPa	969.5
16844 kPa	969.5
17457 kPa	970
17484 kPa	970
17516 kPa	970
17543 kPa	970
17571 kPa	970
17599 kPa	969.9
17632 kPa	970
17686 kPa	970
17714 kPa	970.1
17747 kPa	970.3
17775 kPa	970.2
17808 kPa	970.2
17836 kPa	970
17864 kPa	970.2
17898 kPa	970.1
17926 kPa	970.3
17954 kPa	970.3
17983 kPa	970.2
18017 kPa	970.3
18046 kPa	970.3
18080 kPa	970.3
18109 kPa	970.3
18137 kPa	970.4
18165 kPa	970.3
18200 kPa	970.4
18228 kPa	970.5
18261 kPa	970.5
18289 kPa	970.4
18316 kPa	970.6
18346 kPa	970.5
18370 kPa	970.6
18394 kPa	970.5
18418 kPa	970.6
18446 kPa	970.5
18471 kPa	970.6
18495 kPa	970.7
18524 kPa	970.7
18656 kPa	970.8
18681 kPa	970.8
18706 kPa	970.8
18732 kPa	970.7
18761 kPa	970.8
18787 kPa	970.9
18812 kPa	970.8
18842 kPa	970.9
18867 kPa	970.9
18923 kPa	971
18949 kPa	970.9
18975 kPa	971.1
19008 kPa	971
19034 kPa	971
19060 kPa	971.1
19085 kPa	971
19632 kPa	971.4
19654 kPa	971.4
19677 kPa	971.5
19700 kPa	971.5
19726 kPa	971.4
19747 kPa	971.4
19768 kPa	971.5
19790 kPa	971.5
19809 kPa	971.6
19830 kPa	971.5
19850 kPa	971.6
20110 kPa	971.8
20121 kPa	971.8
20124 kPa	971.8
20125 kPa	971.7
20126 kPa	971.8
20127 kPa	971.9
20128 kPa	971.8
21458 kPa	972.6
21485 kPa	972.7
21513 kPa	972.7
21545 kPa	972.7
21573 kPa	972.7
21600 kPa	972.8
21630 kPa	972.7
21654 kPa	972.8
21678 kPa	972.6
21708 kPa	972.7
21835 kPa	972.9
21865 kPa	972.9
21890 kPa	973
21915 kPa	973
